Experimental data taken from ChEMBL document CHEMBL3137667, “[Drug-induced liver injury; fourteenth updated edition of the bibliographic database of liver injuries and related drugs]” (Gastroenterol Clin Biol, 2004).
*1 amine or outer side, *2 acyl side, *3 side chain or, on linkers, in order; H or OH if unused. Where a SMILES comes first, the peptide text is derived from it. Bridges are numbered along the chain shown (N, C = ends). [ ]: non-standard residue; d: D form. The star is where a group is joined. ξ: configuration not given here. X2 = N=C1NCCC([C@H](N[*:1])C(=O)[*:2])N1; ΔAla(Z-3-ureido) = NC(=O)N/C=C(\N)C(=O)O; ξβ3hOrn = NCCCC(N)CC(=O)*; Dap = NC[C@H](N)C(=O)O

Experiments:
[1] = Highest frequency of moderate liver toxicity observed during clinical trials, expressed as a percentage. [column '% BIOL' in source]; conditions: human
[2] = Highest frequency of acute liver toxicity observed during clinical trials, expressed as a percentage. [column '% AIGUE' in source]; conditions: human
[3] = human, serum
[4] = human, serum; remark: listed apart in the source
[5] = human
[6] = human; remark: listed apart in the source
[7] = human; remark: listed apart in the source
[8] = human, serum, 4383 h
[9] = human; remark: listed apart in the source
[10] = human; remark: listed apart in the source
[11] = human; remark: listed apart in the source
[12] = human; remark: listed apart in the source
[13] = human; remark: listed apart in the source
[14] = human; remark: listed apart in the source
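Throughout, for Hepatotoxicity (association with vascular disease): count of indexed literature references reporting vascular liver injury in humans, e.g. peliosis hepatitis, hepatic veno-occlusive disease or Budd-Chiari syndrome.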
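Throughout, for Hepatotoxicity (benign tumour): value is a count of indexed literature references citing a benign tumour confirmed by histopathology.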
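Throughout, for Hepatotoxicity (choleostasis): human cholestatic liver injury, shown by histopathology or by peak ALT or AST elevation over alkaline phosphatase ratio below 2, value counts indexed literature reports.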
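Throughout, for Hepatotoxicity (chronic liver disease): chronic liver injury confirmed by histopathology or persistently raised serum aminotransferase activity beyond 6 months, value given as the count of indexed literature references.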
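Throughout, for Hepatotoxicity (cirrhosis): value is a count of indexed literature references reporting cirrhosis confirmed by histopathology.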
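Throughout, for Hepatotoxicity (cytolytic): human cytolytic liver injury, shown by histopathology or by a ratio above 5 of peak ALT or AST elevation to alkaline phosphatase elevation, value counts indexed references.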
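Throughout, for Hepatotoxicity (granulomatous hepatitis): value is a count of indexed literature references reporting granulomatous liver disease confirmed by histopathology.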
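Throughout, for Hepatotoxicity (malignant tumour): malignant tumour confirmed by histopathology, value gives the count of indexed literature references reporting it.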
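Throughout, for Hepatotoxicity (severe hepatitis): human clinical data: severe hepatitis, meaning potentially life-threatening liver failure or clinically observed cases, the value counts how many indexed literature references report it.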
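Throughout, for Hepatotoxicity (steatosis): steatosis confirmed by histopathology, value is the count of indexed references.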

SMILES	Hepatotoxicity (moderate) [1]	Hepatotoxicity (acute) [2]	Hepatotoxicity (moderate) [3]	Hepatotoxicity (acute) [4]	Hepatotoxicity (cytolytic) [5]	Hepatotoxicity (choleostasis) [6]	Hepatotoxicity (severe hepatitis) [7]	Hepatotoxicity (chronic liver disease) [8]	Hepatotoxicity (cirrhosis) [9]	Hepatotoxicity (granulomatous hepatitis) [10]	Hepatotoxicity (association with vascular disease) [11]	Hepatotoxicity (steatosis) [12]	Hepatotoxicity (malignant tumour) [13]	Hepatotoxicity (benign tumour) [14]
CC(C)C[C@H](NC(=O)[C@H](CCCCN)NC(=O)CNC(=O)[C@H](CC(C)C)NC(=O)[C@@H](NC(=O)[C@@H]1CSSC[C@H](N)C(=O)N[C@@H](CO)C(=O)N[C@@H](CC(N)=O)C(=O)N[C@@H](CC(C)C)C(=O)N[C@@H](CO)C(=O)N[C@@H]([C@@H](C)O)C(=O)N1)C(C)C)C(=O)N[C@@H](CO)C(=O)N[C@@H](CCC(N)=O)C(=O)N[C@@H](CCC(=O)O)C(=O)N[C@@H](CC(C)C)C(=O)N[C@@H](Cc1c[nH]cn1)C(=O)N[C@@H](CCCCN)C(=O)N[C@@H](CC(C)C)C(=O)N[C@@H](CCC(N)=O)C(=O)N[C@H](C(=O)N[C@@H](Cc1ccc(O)cc1)C(=O)N1CCC[C@H]1C(=O)N[C@@H](CCCNC(=N)N)C(=O)N[C@H](C(=O)N[C@@H](CC(N)=O)C(=O)N[C@H](C(=O)NCC(=O)N[C@@H](CO)C(=O)NCC(=O)N[C@H](C(=O)N1CCC[C@H]1C(N)=O)[C@@H](C)O)[C@@H](C)O)[C@@H](C)O)[C@@H](C)O [CALCITONIN SALMON]	3.1%	0%	1	0	0	0	0	0	0	0	0	0	0	0
CCCCCOC(=O)Nc1nc(=O)n([C@@H]2O[C@H](C)[C@@H](O)[C@H]2O)cc1F [CAPECITABINE]	61.8%	0%	1	0	0	0	0	0	0	0	0	0	0	0
C[C@@H]1NC(=O)[C@@H](N)CNC(=O)[C@H](C2CCNC(=N)N2)NC(=O)/C(=C/NC(N)=O)NC(=O)[C@H](CNC(=O)CC(N)CCCN)NC1=O.N=C1NCCC([C@@H]2NC(=O)/C(=C/NC(N)=O)NC(=O)[C@H](CNC(=O)CC(N)CCCN)NC(=O)[C@H](CO)NC(=O)[C@@H](N)CNC2=O)N1 (stereo partly drawn) [CAPREOMYCIN] (H-[Dap]S[Dap](ξβ3hOrn)[ΔAla(Z-3-ureido)][X2]; lactam 1-C)	0%	0%	3	0	0	0	0	0	0	0	0	0	0	0
CC1(C)[C@@H](OC(=O)CCC(=O)O)CC[C@]2(C)[C@H]3C(=O)C=C4[C@@H]5C[C@@](C)(C(=O)O)CC[C@]5(C)CC[C@@]4(C)[C@]3(C)CC[C@@H]12 [CARBENOXOLONE]	0%	0%	2	0	0	0	0	0	0	0	0	0	0	0
C[C@@](Cc1ccc(O)c(O)c1)(NN)C(=O)O.O [CARBIDOPA]	0%	0%	0	1	0	1	0	0	0	0	0	1	0	0
N[C@@H](CSCC(=O)O)C(=O)O [CARBOCYSTEINE]	0.8%	0%	1	0	0	0	0	0	0	0	0	0	0	0
NC(=O)OC[C@@H]1[C@H](NC(=O)/C(=N\OCC(=O)O)c2csc(N)n2)C(=O)N1S(=O)(=O)O [CARUMONAM]	22%	0%	24	0	0	0	0	0	0	0	0	0	0	0
CC[C@H](C)C[C@H](C)CCCCCCCCC(=O)N[C@H]1C[C@@H](O)[C@@H](NCCN)NC(=O)[C@@H]2[C@@H](O)CCN2C(=O)[C@H]([C@H](O)CCN)NC(=O)[C@H]([C@H](O)[C@@H](O)c2ccc(O)cc2)NC(=O)[C@@H]2C[C@@H](O)CN2C(=O)[C@H]([C@@H](C)O)NC1=O [CASPOFUNGIN]	8.4%	0%	3	1	0	0	0	0	0	0	0	0	0	0
CCN1CCN(C(=O)N[C@@H](C(=O)N[C@]2(OC)C(=O)N3C(C(=O)O)=C(CSc4nnnn4C)CS[C@@H]32)[C@H](C)O)C(=O)C1=O [CEFBUPERAZONE]	6.4%	0%	2	0	0	0	0	0	0	0	0	0	0	0
